Laboratory results reported in US20160083776A1, “Methods for Measuring Polymerase Activity Useful for Sensitive, Quantitative Measurements of Any Polymerase Extension Activity and for Determining the Presence of Viable Cells” (Zeus Scientific, Inc., priority 2012, published 2016).

Experiments:
Format in all cases: biochemical
DNA polymerase I = target: T1, DNA polymerase I (Escherichia coli, UniProt P00582); assay: DPE-PCR assay, ddCTP termination of purified DNA polymerase extension activity; conditions: 50 μM ddCTP substituted for dCTP in the extension reaction mix; 37° C., 20 minutes
T1 construct: purchased New England Biolabs MO209
Procedure: DNA Pol I (NEB cat# MO209L), Klenow (NEB cat# MO210S) and Klenow exo(−) (NEB cat# MO212S) were diluted to the indicated U/μL stock in sterile T.E. pH 8.0. To begin, 2 μL of DNA polymerase stock at each concentration were placed into a 50 μL DNA polymerase extension reaction mixture containing the following components: 50 μM dNTP, 20 mM Tris pH 8.0, 10 mM Ammonium sulfate, 10 mM Potassium chloride, 2 mM Magnesium sulfate, 1% BSA, 0.1% Triton X-100, 0.1% Tween 20, and 0.001 μM pre-annealed DNA substrate (described above. Two micro-liters of T.E. (without DNA polymerase) was routinely added to an additional tube containing complete DNA polymerase extension reaction mixture and is referred to as a “No Input Control” (NIC). Reactions containing DNA polymerase (or No Input Controls) were vortexed briefly and placed at 37° C. for 20 minutes. After 20 minutes, 3 μL of each reactions containing purified DNA polymerase were immediately placed into a qPCR reaction (see below for qPCR conditions).
DNA polymerase extension reactions were prepared as described above with a 50 μM [dATP, dGTP, dTTP] mixture supplemented with either 50 μM dCTP or 50 μM ddCTP (Affymetrix #77332.) 50 μL DNA polymerase extension reactions with a 50 μM [dATP, dGTP, dTTP] mixture, supplemented with either dCTP or ddCTP, were spiked with 2 μL of a 1×10^−9 U/μL stock of DNA polymerase I (New England Biolabs # MO209). […]

[1] = test system: E. coli-derived DNA polymerase activity; assay: Bead lysis-coupled DPE-PCR, ddCTP substitution, E. coli lysate; conditions: 50 μM ddCTP substituted for dCTP, compared to standard reaction mix; crude bead mill lysate
Procedure: (§1) FIG. 5 illustrates that detection of bacteria by DPE-PCR is blocked by ddCTP. 5 μL of E. coli suspension were added to bead lysis-coupled DNA polymerase assays comprised of a dNTP mix containing either 50 μM dCTP or 50 μM ddCTP. DPE-PCR curves representing E. coli-derived DNA polymerase activity is presented. Plots were generated using the average qPCR Ct values from triplicate reactions at the indicated conditions. ddCTP termination and dCTP rescue experiments were performed for S. aureus exactly as described above for E. coli.
(§2) S. aureus and E. coli cultures were grown to an OD600 of 1.0±0.2 (approximately 1×10^9 cfu/mL.) For each organism, 1 mL of culture was pelleted and washed three times in T.E. Bacterial suspensions were serially diluted in T.E., and 5 μL of each stock were added to bead mill lysis tubes containing 50 μL DNA polymerase extension reaction mixture (see above for composition). A titration curve of 1×10^5 to […] cfu/reaction was performed in triplicate for each organism, including triplicate reactions without bacterial suspension.
(§3) After the addition of 5 μL bacterial stock, reaction tubes were bead milled for 6 min. at 2800 rpm using a digital Vortex Genie equipped with a disrupter head (Scientific Industries). Immediately after disruption, sample tubes were placed at 37° C. for 20 minutes. […]

[2] = test system: S. aureus DNA polymerase extension activity; assay: Bead lysis-coupled DPE-PCR, ddCTP substitution, S. aureus lysate; conditions: 50 μM ddCTP substituted for dCTP, compared to standard reaction mix; crude bead mill lysate
Procedure: as §1, §2, §3

T1 sequence (P00582 whole entry): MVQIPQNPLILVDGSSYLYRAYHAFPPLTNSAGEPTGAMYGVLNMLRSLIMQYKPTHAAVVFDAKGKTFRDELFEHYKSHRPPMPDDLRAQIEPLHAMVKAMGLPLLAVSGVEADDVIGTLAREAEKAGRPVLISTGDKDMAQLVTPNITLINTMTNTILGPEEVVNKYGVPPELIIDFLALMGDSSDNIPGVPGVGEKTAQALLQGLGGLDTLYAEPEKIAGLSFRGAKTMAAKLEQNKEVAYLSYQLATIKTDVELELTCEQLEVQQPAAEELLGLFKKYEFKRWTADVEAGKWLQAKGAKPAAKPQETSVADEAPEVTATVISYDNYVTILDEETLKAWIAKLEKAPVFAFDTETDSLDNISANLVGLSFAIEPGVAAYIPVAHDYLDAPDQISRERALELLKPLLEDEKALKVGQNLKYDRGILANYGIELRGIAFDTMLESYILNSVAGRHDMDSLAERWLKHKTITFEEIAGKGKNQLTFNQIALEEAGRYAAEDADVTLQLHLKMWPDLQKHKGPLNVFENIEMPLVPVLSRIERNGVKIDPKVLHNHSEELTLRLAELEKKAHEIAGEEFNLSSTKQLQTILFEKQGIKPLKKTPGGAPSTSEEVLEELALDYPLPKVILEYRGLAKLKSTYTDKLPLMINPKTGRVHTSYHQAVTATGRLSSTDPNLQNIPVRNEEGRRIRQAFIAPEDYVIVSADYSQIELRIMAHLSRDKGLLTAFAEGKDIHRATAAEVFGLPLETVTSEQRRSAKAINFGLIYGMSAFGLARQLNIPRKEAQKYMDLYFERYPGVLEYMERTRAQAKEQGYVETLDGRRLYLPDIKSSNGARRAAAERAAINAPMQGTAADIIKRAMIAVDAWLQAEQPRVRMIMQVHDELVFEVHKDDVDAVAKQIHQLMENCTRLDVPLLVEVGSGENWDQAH

For `Nc1ccn([C@H]2CC[C@@H](COP(=O)(O)OP(=O)(O)OP(=O)(O)O)O2)c(=O)n1` [ddCTP, 2′,3′-Dideoxycytidine-5′-Triphosphate], the “DPE-PCR assay signal generated by DNA polymerase I” value (DNA polymerase I) was “eliminates signal”, the “DPE-PCR signal derived from E. coli cfu spikes” value [1] was “blocked the generation of signal” and the “DPE-PCR signal derived from S. aureus cfu spikes” value [2] was “blocked the generation of signal”.
